Activity calls are given as the source filed them. How the calls were made is not given here.

The subject of this data set is rodent carcinogenicity bioassays, tumor incidence. The data set is described as follows: CCRIS carcinogenicity studies. The essentials: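 NCI-built, expert-reviewed records of carcinogenicity and related test outcomes (mutagenicity, tumor promotion/inhibition) compiled from published and report sources, historical span 1985-2011, not updated.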

With `O.O.O.O.O.[Cd+2].[Cd+2].[Cl-].[Cl-].[Cl-].[Cl-]`, the carcinogen call is “inactive; negative” (Species: HAMSTER, Strain/Sex: SYRIAN/FEMALE, Route: SUBCUTANEOUS, Dose: 0, 30, 40, 50 UMOL/KG ONCE ON THE FOURTH DAY OF THE ESTROUS CYCLE (STUDY DURATION: 78 WK), Dose: 0, 30, 40, 50 UMOL/KG ONCE ON THE FOURTH DAY OF THE ESTROUS CYCLE (STUDY DURATION: 78 WK)); “active; positive” (Species: HAMSTER, Strain/Sex: SYRIAN/MALE, Route: SUBCUTANEOUS, Dose: 0, 20 UMOL/KG ONCE (STUDY DURATION: 104 WK), Tumor Site: Type of Lesion: ADRENAL GLAND: TUMOR); “inactive; negative” (Species: MOUSE, Strain/Sex: C57/MALE, Route: SUBCUTANEOUS, Dose: 0, 20 UMOL/KG ONCE (STUDY DURATION: 104 WK)); “active; positive” (Species: MOUSE, Strain/Sex: NFS/MALE, Route: SUBCUTANEOUS, Dose: 0, 20 UMOL/KG ONCE (STUDY DURATION: 104 WK), Tumor Site: Type of Lesion: LYMPHOID TISSUE: LYMPHOMA); “inactive; negative” (Species: RAT, Strain/Sex: WISTAR/FEMALE, Route: ORAL, Dose: 0, 1, 3, 10, 50 PPM IN DIET FOR 104 WK (STUDY DURATION: 2 YR), Dose: 0, 1, 3, 10, 50 PPM IN DIET FOR 104 WK (STUDY DURATION: 2 YR)); “inactive; negative” (Species: RAT, Strain/Sex: WISTAR/MALE, Route: ORAL, Dose: 0, 1, 3, 10, 50 PPM IN DIET FOR 104 WK (STUDY DURATION: 2 YR), Dose: 0, 1, 3, 10, 50 PPM IN DIET FOR 104 WK (STUDY DURATION: 2 YR)). For the same molecule, the carcinogen call is, setting by setting: (Species: RAT, Strain/Sex: WISTAR/MALE, Route: ORAL, Dose: 0, 25, 50, 100, 200 PPM IN DIET FOR 77 WK TO RATS MAINTAINED ON ZINC ADEQUATE (60 PPM) DIET (STUDY DURATION: 79 WK), Dose: 0, 25, 50, 100, 200 PPM IN DIET FOR 77 WK TO RATS MAINTAINED ON ZINC ADEQUATE (60 PPM) DIET (STUDY DURATION: 79 WK), Tumor Site: Type of Lesion: HEMATOPOIETIC SYSTEM: LEUKEMIA, TESTIS: TUMOR) “active; positive”; (Species: RAT, Strain/Sex: WISTAR/MALE, Route: ORAL, Dose: 0, 25, 50, 100, 200 PPM IN DIET FOR 77 WK TO RATS MAINTAINED ON ZINC DEFICIENT (7 PPM) DIET (STUDY DURATION: 79 WK), Dose: 0, 25, 50, 100, 200 PPM IN DIET FOR 77 WK TO RATS MAINTAINED ON ZINC DEFICIENT (7 PPM) DIET (STUDY DURATION: 79 WK), Tumor Site: Type of Lesion: HEMATOPOIETIC SYSTEM: LEUKEMIA) “active; positive”; (Species: RAT, Strain/Sex: WISTAR/MALE, Route: SUBCUTANEOUS, Dose: 0, 5, 10, 30 UMOL ONCE ADMINISTERED TO RATS FED DIETS ADEQUATE (60 PPM) IN ZINC (STUDY DURATION: 92 WK), Dose: 0, 5, 10, 30 UMOL ONCE ADMINISTERED TO RATS FED DIETS ADEQUATE (60 PPM) IN ZINC (STUDY DURATION: 92 WK), Tumor Site: Type of Lesion: TESTES: ADENOMA) “active; positive”; (Species: RAT, Strain/Sex: WISTAR/MALE, Route: SUBCUTANEOUS, Dose: 0, 5, 10, 30 UMOL ONCE ADMINISTERED TO RATS FED DIETS DEFICIENT (7 PPM) IN ZINC (STUDY DURATION: 92 WK), Dose: 0, 5, 10, 30 UMOL ONCE ADMINISTERED TO RATS FED DIETS DEFICIENT (7 PPM) IN ZINC (STUDY DURATION: 92 WK), Tumor Site: Type of Lesion: TESTES: ADENOMA, INJECTION SITE: SARCOMA) “active; positive”.

`N#[N+]c1ccccc1`: the carcinogen call by setting is: (Species: MOUSE, Strain/Sex: SWISS/FEMALE, Route: GAVAGE, Dose: 0, 100 MG/KG BW 1X/WK FOR 52 WK (STUDY DURATION: 140 WK), Tumor Site: Type of Lesion: LUNG: TUMOR) “active; positive”; (Species: MOUSE, Strain/Sex: SWISS/FEMALE, Route: SUBCUTANEOUS, Dose: 0, 10 UG/G BW IN 0.01 ML OF 0.9% SALINE 1/WK FOR 26 WK (STUDY DURATION: 140WK), Tumor Site: Type of Lesion: SUBCUTANEOUS TISSUE: TUMOR) “active; positive”; (Species: MOUSE, Strain/Sex: SWISS/FEMALE, Route: SUBCUTANEOUS, Dose: 0, 25 MG/KG BW 1X/WK FOR 10 WK (STUDY DURATION: 130 WK)) “inactive; negative”; (Species: MOUSE, Strain/Sex: SWISS/MALE, Route: GAVAGE, Dose: 0, 100 MG/KG BW 1X/WK FOR 52 WK (STUDY DURATION: 130 WK), Tumor Site: Type of Lesion: LUNG: TUMOR) “active; positive”; (Species: MOUSE, Strain/Sex: SWISS/MALE, Route: SUBCUTANEOUS, Dose: 0, 10 UG/G BW IN 0.01 ML OF 0.9% SALINE 1/WK FOR 26 WK (STUDY DURATION: 140 WK), Tumor Site: Type of Lesion: SUBCUTANEOUS TISSUE: TUMOR) “active; positive”; (Species: MOUSE, Strain/Sex: SWISS/MALE, Route: SUBCUTANEOUS, Dose: 0, 25 MG/KG BW 1X/WK FOR 10 WK (STUDY DURATION: 120 WK)) “inactive; negative”.

With `NC(=S)Nc1ccccc1`, the carcinogen call is “inactive; negative” (Species: MOUSE, Strain/Sex: B6C3F1/FEMALE, Route: ORAL, Dose: 0, 150, 300 PPM IN DIET, Dose: 0, 150, 300 PPM IN DIET); “inactive; negative” (Species: MOUSE, Strain/Sex: B6C3F1/MALE, Route: ORAL, Dose: 0, 150, 300 PPM IN DIET, Dose: 0, 150, 300 PPM IN DIET); “inactive; negative” (Species: RAT, Strain/Sex: F344/FEMALE, Route: ORAL, Dose: 0, 60, 120 PPM IN DIET, Dose: 0, 60, 120 PPM IN DIET); “inactive; negative” (Species: RAT, Strain/Sex: F344/MALE, Route: ORAL, Dose: 0, 60, 120 PPM IN DIET, Dose: 0, 60, 120 PPM IN DIET).

In the case of `[Ni]=[Te]`, the carcinogen call (Species: RAT, Strain/Sex: F344/MALE, Route: INTRAMUSCULAR, Tumor Site: Type of Lesion: INJECTION SITE: SARCOMA) was “active; positive”.

Turning to `COc1ccc(O)cc1`, the carcinogen call runs as follows: (Species: RAT, Strain/Sex: F344/FEMALE, Route: ORAL, Dose: 0, 2% IN DIET FOR 104 WK (STUDY DURATION: 104 WK), Tumor Site: Type of Lesion: FORESTOMACH: PAPILLOMA, SQUAMOUS CELL CARCINOMA) “active; positive”; (Species: RAT, Strain/Sex: F344/MALE, Route: ORAL, Dose: 0, 0.4% IN DIET FOR DURATION OF STUDY (STUDY DURATION: 104 WK)) “inactive; negative”; (Species: RAT, Strain/Sex: F344/MALE, Route: ORAL, Dose: 0, 2% IN DIET FOR 104 WK (STUDY DURATION: 104 WK), Tumor Site: Type of Lesion: FORESTOMACH: PAPILLOMA, SQUAMOUS CELL CARCINOMA) “active; positive”.

As to `O=[N+]([O-])c1cccc2cccnc12`, the carcinogen call (Species: RAT, Strain/Sex: F344/MALE,FEMALE, Route: ORAL, Dose: 0.1% IN DIET FOR 2 YR, Tumor Site: Type of Lesion: FORESTOMACH: SQUAMOUS CELL PAPILLOMA, CARCINOMA) was “active; positive”.

`CCCCCCCCCc1ccc(OCCO)cc1`: the carcinogen call (Species: MOUSE, Strain/Sex: B6C3F1/FEMALE, Route: ORAL, Dose: 0, 500, 1500, 4500 PPM IN DIET FOR 104 WK (STUDY DURATION: 104 WK), Dose: 0, 500, 1500, 4500 PPM IN DIET FOR 104 WK (STUDY DURATION: 104 WK)) is “inactive; negative” and the carcinogen call (Species: RAT, Strain/Sex: F344/FEMALE, Route: ORAL, Dose: 0, 1000, 3000, 9000 PPM IN DIET FOR 104 WK (STUDY DURATION: 104 WK), Dose: 0, 1000, 3000, 9000 PPM IN DIET FOR 104 WK (STUDY DURATION: 104 WK)) is “inactive; negative”.

`CC(=O)Nc1ccc(CC(=O)O)cc1`: the carcinogen call is “inactive; negative” (Species: MOUSE, Strain/Sex: B6C3F1/FEMALE, Route: ORAL, Dose: 0;300, 1000, 3000 MG/KG IN DIET FOR 78 WK (STUDY DURATION: 78 WK), Dose: 0;300, 1000, 3000 MG/KG IN DIET FOR 78 WK (STUDY DURATION: 78 WK)); “inactive; negative” (Species: MOUSE, Strain/Sex: B6C3F1/MALE, Route: ORAL, Dose: 0, 300, 1000, 3000 MG/KG IN DIET FOR 78 WK (STUDY DURATION: 78 WK), Dose: 0, 300, 1000, 3000 MG/KG IN DIET FOR 78 WK (STUDY DURATION: 78 WK)); “inactive; negative” (Species: RAT, Strain/Sex: F344/FEMALE, Route: ORAL, Dose: 0, 300, 1000, 3000 MG/KG/D IN DIET FOR 104 WK (STUDY DURATION: 104 WK), Dose: 0, 300, 1000, 3000 MG/KG/D IN DIET FOR 104 WK (STUDY DURATION: 104 WK)); “inactive; negative” (Species: RAT, Strain/Sex: F344/MALE, Route: ORAL, Dose: 0, 300, 1000, 3000 MG/KG/D IN DIET FOR 104 WK (STUDY DURATION: 104 WK), Dose: 0, 300, 1000, 3000 MG/KG/D IN DIET FOR 104 WK (STUDY DURATION: 104 WK)).

`CC(=O)[C@H]1CC[C@H]2[C@@H]3CCC4=CC(=O)CC[C@]4(C)[C@H]3CC[C@]12C`: the carcinogen call (Species: MOUSE, Route: SUBCUTANEOUS, Tumor Site: Type of Lesion: MAMMARY GLAND, OVARIES, UTERUS, Tumor Site: Type of Lesion: MAMMARY GLAND, OVARIES, UTERUS) was “active; positive”.

The values above are taken from PubChem BioAssay AID1259411 (Chemical Carcinogenesis Research Information System (CCRIS), 2018).
